One assay deals with CD163. The assay can be described thus: Immunofluorescence of CD163 in prefrontal cortex brain tissue, acute hypobaric hypoxia model. Conditions: FIGS. 5A and 5B. The class given is in vivo, cynomolgus monkeys. An excerpt:
FIG. 5. […] A. Immunofluorescence imaging of CD163 and Iba-1 in the brain tissue of cynomolgus monkeys. B. Statistics of relative fluorescence intensity of CD163 and Iba-1. C. Correlation analysis of relative fluorescence intensity of CD163 and Iba-1. NN: Normobaric Normoxia group; HH: Hypobaric Hypoxia group; HH+Triol: Hypobaric Hypoxia with Triol administration group; HH+PROG: Hypobaric Hypoxia with progesterone administration group. One-way ANOVA analysis and Dunnutt's t test were used to perform statistical tests, and in the latter each group was compared with the HH group, ***, p<0.001.
The thickness of paraffin sections was 5 μm. For fresh paraffin sections, the sections were dried at 37° C. overnight and then dried at 55° C. for 30 minutes. The sections were quickly placed in xylene for dewaxing. After fully dewaxing with xylene for 10 min for 3 times, absolute ethanol-95% ethanol-90% ethanol-80% ethanol-70% ethanol-50% ethanol-ddH2O were successively used for gradient rehydration. After rehydration, the sections were placed in EDTA antigen repair solution for microwave high temperature repair. After the repair was completed, it was allowed naturally cool down to room temperature. […] NIS-Elements Analysis software was used to analyze the fluorescence intensity of confocal images, which was then normalized with the fluorescence intensity per unit area according to the built-in scale. […]

In another assay the test system is Heme Oxygenase-1 (HO-1). Briefly: Western blot of HO-1 in prefrontal cortex brain tissue, acute hypobaric hypoxia model. Type of assay: in vivo, cynomolgus monkeys. Conditions: after hypobaric hypoxia, FIG. 4. The source says: FIG. 4. Triol enhanced the clearance of free hemoglobin in brain tissue by up-regulating CD163 and Heme Oxygenase-1 (HO-1) protein levels. A. Protein expression of hemoglobin scavenger receptor CD163 and heme oxygenase HO-1 in the brain tissue of the prefrontal cortex of cynomolgus monkeys; B. Statistics of protein relative gray scan values. The gray value was obtained by scanning with Image Lab software, and the relative value was obtained after normalizing with α-Tubulin. NN: Normobaric Normoxia group (N=3); HH: Hypobaric Hypoxia group (N=3); HH+Triol: Hypobaric Hypoxia with Triol administration group (N=3); HH+PROG: Hypobaric Hypoxia with progesterone administration group (N=3). […]
1) Preparation of protein samples (see the instructions of M-PER protein lysate): After the cells had been processed for the specified time, the medium was aspirated and then washed with 4° C. pre-chilled PBS (0.01M pH7.2˜7.3) for 3 times. […] 2) BCA protein quantification (see the instructions of BCA protein quantification kit): corresponding components were added to a 96-well detection plate by the ratio of quantification reagent A solution:B solution:ddH2O:protein=100:2:7.5:5, and albumin standards diluted in gradient concentration were added to draw a standard curve. […] After the reaction, the absorbance of each well at a wavelength of 562 nm was detected using a microplate reader. […]
On the technique in general: A western blot detects proteins with antibodies after separation by electrophoresis.

SMILES strings stand for the structures.

Results on one compound are retold here after patent US11911396B2, “Use of compound in preparation of drug for treating cerebral small vessel disease” (GUANGZHOU CELLPROTEK PHARMACEUTICAL CO., LTD, priority 2017, dated 2024).

With `C[C@@]12CCCC1C1C[C@@H](O)[C@@]3(O)C[C@@H](O)CC[C@]3(C)C1CC2` (stereo partly drawn) [Triol, 5α-androst-3β,5,6β-triol], the “down-regulation of CD163 expression caused by acute hypobaric hypoxia” value in the assay with CD163 is reported as “significantly restored”. For the same compound, the “expression of HO-1” value in the assay on Heme Oxygenase-1 (HO-1) is on record as “further up-regulated”.
